Assay results reported in the NIST ThermoML archive (doi:10.1016/j.jct.2017.01.019).
± gives the expanded uncertainty stated by the source.

Conditions: Liquid, Closed cell (Static) method

SMILES	vapor or sublimation pressure (243.15 K) [kPa]	vapor or sublimation pressure (248.15 K) [kPa]	vapor or sublimation pressure (253.15 K) [kPa]	vapor or sublimation pressure (258.15 K) [kPa]	vapor or sublimation pressure (263.15 K) [kPa]	vapor or sublimation pressure (268.15 K) [kPa]	vapor or sublimation pressure (273.15 K) [kPa]	vapor or sublimation pressure (278.15 K) [kPa]	vapor or sublimation pressure (283.15 K) [kPa]	vapor or sublimation pressure (288.15 K) [kPa]	vapor or sublimation pressure (293.15 K) [kPa]
N [ammonia]	119.7 ± 1.6	151.7 ± 1.6	190.2 ± 1.6	236.4 ± 1.6	290.7 ± 1.7	354.8 ± 1.7	429.3 ± 1.7	515.5 ± 1.8	615.1 ± 1.8	728.5 ± 1.9	857.1 ± 2
FCC(F)(F)F [1,1,1,2-tetrafluoroethane]	84.5 ± 1.6	106.4 ± 1.6	132.7 ± 1.6	163.9 ± 1.6	200.6 ± 1.6	243.3 ± 1.6	292.7 ± 1.7	349.6 ± 1.7	414.3 ± 1.7	488.2 ± 1.8	570.7 ± 1.8
